The record followed here is patent publication US8637702B2, “Derivatives of N-hydroxybenzamide for treating HIV infections” (Italfarmaco S.p.A., priority 2009, dated 2014).

The target in experiment [1] is HDAC2 (Homo sapiens, UniProt Q92769). The experiment is described as follows: Inhibition of histone deacetylase isoforms, HDAC2.
Description: (§1) Recombinant human enzymes were acquired from BPS Biosciences (CA, USA). Isoforms of Class I HDAC1, 2, 3; HDAC6, 10 of Class IIb and Class IV HDAC11 were tested using the Fluor-de-Lys fluorogenic synthetic substrate (Enzo Life Sciences, Plymouth Meeting, Pa.). […] The recombinant human HDAC8 assay was performed using HDAC8 Fluorimetric Drug Discovery Kit (Enzo) according to the manufacturer instructions. Each inhibitor was dissolved in DMSO and then further diluted in an assay buffer. […] The assays were performed by pre-incubating each enzyme with the inhibitors for 15 minutes at 37° C. The reaction was started by adding the substrate at 37° C. and allowed to proceed for 60 minutes. The fluorescent signal was generated by adding 50 μL of a twice concentrated developer solution 2 (Enzo) containing trichostatin A 4 μM.
Experiment [2] concerns the target HDAC4 (Homo sapiens, UniProt P56524). The experiment is described as follows: Inhibition of histone deacetylase isoforms, HDAC4.
Description: (§2) Recombinant human enzymes were acquired from BPS Biosciences (CA, USA). Isoforms of Class I HDAC1, 2, 3; HDAC6, 10 of Class IIb and Class IV HDAC11 were tested using the Fluor-de-Lys fluorogenic synthetic substrate (Enzo Life Sciences, Plymouth Meeting, Pa.). […] Each inhibitor was dissolved in DMSO and then further diluted in an assay buffer. […] The assays were performed by pre-incubating each enzyme with the inhibitors for 15 minutes at 37° C. The reaction was started by adding the substrate at 37° C. and allowed to proceed for 60 minutes. The fluorescent signal was generated by adding 50 μL of a twice concentrated developer solution 2 (Enzo) containing trichostatin A 4 μM.
The target of experiment [3] is HDAC3 (Homo sapiens, UniProt O15379). Briefly: Inhibition of histone deacetylase isoforms, HDAC3.
Description: as §1
Experiment [4] deals with HDAC9 (Homo sapiens, UniProt Q9UKV0). Briefly: Inhibition of histone deacetylase isoforms, HDAC9.
Description: as §2
For experiment [5], the system named is HIV-1 expression in ACH-2 cells. The experiment is described as follows: Induction of the HIV-1 expression in the ACH-2 cell line (p24). Type of experiment: cell-based. The conditions noted are these: 24 hours. How it is done: ACH2 cells were obtained through AIDS Research and Reference Reagent Program, Division of AIDS, National Institute of Allergy and Infectious Diseases, National Institutes of Health, Bethesda, Md. The cells were cultured in flasks, washed in RPMI and resuspended in RPMI/10% FCS at a concentration of 2×10^6 cells/mL. […] After 24 hours of incubation at 37° C./5% CO2, 50 μL of supernatant were removed for the cytotoxicity assay of the lactate dehydrogenase (LDH) and Triton-X-100 (0.5% vol/vol final concentration) were added to each culture. The p24 assays of the lysates were performed immediately.
p24 was measured using specific antibodies immobilized on magnetic beads as previously described [Nold M. F. et al. J. Immunol. […] The levels of p24 for each experiment without HDAC inhibitors were fixed at 1.0 and the increase values by the number of times for each experiment and each analogous were calculated.

In experiment [6] the target is T1, HDAC10 (Homo sapiens, UniProt Q969S8).
T1 sequence (Q969S8 1-669): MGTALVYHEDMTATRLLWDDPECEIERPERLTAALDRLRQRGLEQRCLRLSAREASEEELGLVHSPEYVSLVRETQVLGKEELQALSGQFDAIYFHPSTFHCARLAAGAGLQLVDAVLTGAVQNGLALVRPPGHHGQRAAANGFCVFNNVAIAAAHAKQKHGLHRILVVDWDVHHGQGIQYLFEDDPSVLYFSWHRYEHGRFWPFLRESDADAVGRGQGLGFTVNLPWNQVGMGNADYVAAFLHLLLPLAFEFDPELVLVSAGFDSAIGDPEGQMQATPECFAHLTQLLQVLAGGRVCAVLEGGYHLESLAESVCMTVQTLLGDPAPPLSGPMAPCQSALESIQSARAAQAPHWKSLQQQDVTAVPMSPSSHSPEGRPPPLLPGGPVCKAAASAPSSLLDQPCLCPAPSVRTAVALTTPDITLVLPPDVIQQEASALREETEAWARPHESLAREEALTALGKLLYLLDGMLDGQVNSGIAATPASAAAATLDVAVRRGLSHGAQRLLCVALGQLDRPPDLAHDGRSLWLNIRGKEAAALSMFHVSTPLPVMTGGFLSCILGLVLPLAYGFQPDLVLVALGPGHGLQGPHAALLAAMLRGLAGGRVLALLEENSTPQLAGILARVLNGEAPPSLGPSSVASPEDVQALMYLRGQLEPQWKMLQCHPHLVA
Briefly: Inhibition of histone deacetylase isoforms, HDAC10.
Description: as §2

Sequence of HDAC3 (O15379 whole entry, canonical isoform): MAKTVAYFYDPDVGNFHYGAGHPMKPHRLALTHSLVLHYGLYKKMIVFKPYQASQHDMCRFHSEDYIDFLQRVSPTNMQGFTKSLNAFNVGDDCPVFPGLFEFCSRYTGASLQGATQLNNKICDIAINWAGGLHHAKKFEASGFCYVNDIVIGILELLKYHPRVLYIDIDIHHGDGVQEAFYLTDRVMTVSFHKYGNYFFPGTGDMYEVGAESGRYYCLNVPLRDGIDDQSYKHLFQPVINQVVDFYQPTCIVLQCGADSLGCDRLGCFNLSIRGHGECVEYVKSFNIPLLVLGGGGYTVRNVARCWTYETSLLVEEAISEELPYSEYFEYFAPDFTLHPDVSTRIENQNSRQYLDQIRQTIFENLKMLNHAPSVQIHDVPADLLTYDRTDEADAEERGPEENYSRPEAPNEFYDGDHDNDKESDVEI
Sequence of HDAC3 (Q9Y618 395-489 partner limits assumed): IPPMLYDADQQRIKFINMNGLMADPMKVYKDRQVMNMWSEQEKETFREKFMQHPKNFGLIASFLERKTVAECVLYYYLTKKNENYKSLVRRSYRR
Sequence of HDAC4 (P56524 whole entry, canonical isoform): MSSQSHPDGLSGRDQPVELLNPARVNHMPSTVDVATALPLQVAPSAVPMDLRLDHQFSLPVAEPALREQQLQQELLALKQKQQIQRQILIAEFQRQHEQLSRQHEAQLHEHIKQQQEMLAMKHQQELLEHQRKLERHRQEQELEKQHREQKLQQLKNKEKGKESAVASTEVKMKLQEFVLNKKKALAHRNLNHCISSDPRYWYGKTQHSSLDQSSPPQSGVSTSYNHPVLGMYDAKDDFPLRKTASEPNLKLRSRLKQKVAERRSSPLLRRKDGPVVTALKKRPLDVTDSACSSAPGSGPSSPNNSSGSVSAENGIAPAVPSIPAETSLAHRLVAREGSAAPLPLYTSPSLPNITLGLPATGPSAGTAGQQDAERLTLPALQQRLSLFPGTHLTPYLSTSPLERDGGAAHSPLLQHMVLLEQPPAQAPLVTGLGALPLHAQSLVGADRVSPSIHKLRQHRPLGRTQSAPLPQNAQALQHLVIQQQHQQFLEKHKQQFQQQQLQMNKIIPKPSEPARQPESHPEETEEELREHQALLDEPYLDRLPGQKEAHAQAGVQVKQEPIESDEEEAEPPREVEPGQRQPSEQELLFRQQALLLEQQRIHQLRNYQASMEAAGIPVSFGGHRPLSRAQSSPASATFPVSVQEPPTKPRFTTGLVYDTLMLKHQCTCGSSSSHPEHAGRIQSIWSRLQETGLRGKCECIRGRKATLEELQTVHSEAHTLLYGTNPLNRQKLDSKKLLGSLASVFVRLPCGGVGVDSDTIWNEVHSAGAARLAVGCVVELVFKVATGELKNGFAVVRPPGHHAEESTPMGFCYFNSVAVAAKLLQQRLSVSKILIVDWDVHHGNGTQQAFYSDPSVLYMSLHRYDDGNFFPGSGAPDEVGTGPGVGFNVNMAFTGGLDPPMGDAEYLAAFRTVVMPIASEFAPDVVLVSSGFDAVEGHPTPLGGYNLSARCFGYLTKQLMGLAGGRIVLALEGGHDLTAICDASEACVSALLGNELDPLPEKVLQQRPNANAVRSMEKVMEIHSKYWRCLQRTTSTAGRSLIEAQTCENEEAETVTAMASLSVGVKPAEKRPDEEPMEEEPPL
Sequence of HDAC9 (Q9UKV0 whole entry, canonical isoform): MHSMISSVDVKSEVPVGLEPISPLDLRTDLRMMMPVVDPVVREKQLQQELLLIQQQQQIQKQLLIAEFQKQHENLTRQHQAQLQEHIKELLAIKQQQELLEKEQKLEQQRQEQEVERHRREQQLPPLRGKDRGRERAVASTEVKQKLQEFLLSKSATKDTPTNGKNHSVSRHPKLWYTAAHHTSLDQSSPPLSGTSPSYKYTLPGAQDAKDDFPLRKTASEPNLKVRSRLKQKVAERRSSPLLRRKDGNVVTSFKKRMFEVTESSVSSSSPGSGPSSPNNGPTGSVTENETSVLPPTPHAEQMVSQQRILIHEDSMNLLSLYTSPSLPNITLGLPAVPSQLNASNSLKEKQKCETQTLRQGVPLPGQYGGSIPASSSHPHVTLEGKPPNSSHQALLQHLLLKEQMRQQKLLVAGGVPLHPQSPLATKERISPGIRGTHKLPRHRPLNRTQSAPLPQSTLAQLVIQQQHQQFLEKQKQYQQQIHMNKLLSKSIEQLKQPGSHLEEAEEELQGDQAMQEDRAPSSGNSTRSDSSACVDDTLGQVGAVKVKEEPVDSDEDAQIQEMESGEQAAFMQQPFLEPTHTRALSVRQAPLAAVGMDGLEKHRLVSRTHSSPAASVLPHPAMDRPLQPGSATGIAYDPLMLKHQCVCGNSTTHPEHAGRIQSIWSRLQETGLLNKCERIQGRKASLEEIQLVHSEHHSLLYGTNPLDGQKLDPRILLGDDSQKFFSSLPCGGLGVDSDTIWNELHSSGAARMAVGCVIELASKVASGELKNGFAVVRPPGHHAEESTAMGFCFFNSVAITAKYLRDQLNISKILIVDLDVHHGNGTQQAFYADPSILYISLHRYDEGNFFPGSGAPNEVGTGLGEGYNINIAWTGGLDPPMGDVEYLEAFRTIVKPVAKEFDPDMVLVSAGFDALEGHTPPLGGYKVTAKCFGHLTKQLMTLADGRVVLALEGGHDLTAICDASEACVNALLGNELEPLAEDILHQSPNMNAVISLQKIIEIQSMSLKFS
Sequence of HDAC2 (Q92769 whole entry, canonical isoform): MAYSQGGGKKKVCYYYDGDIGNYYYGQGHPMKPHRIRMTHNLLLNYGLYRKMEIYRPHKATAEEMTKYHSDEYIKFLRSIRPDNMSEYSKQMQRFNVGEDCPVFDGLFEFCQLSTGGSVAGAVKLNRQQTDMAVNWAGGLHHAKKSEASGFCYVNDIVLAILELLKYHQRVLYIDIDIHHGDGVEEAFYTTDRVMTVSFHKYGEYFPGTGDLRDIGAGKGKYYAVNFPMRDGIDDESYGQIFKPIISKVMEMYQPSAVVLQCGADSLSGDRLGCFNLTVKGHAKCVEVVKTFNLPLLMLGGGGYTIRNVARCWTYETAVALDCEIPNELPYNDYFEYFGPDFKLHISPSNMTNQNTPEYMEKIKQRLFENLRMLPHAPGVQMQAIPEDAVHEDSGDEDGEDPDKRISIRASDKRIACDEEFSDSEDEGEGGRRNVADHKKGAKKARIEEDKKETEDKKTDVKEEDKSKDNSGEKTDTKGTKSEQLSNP

In general, IC50 refers to the concentration at which inhibition is half-maximal. Read a high IC50 as weaker potency in that assay. As to `O=C(NO)c1ccc(NC(=O)[C@H](Cc2ccc3ccccc3c2)NC(=O)c2ccccc2)cc1` [Compound g, 4-(2(S)-benzoylamino-3-naphtalen-2-yl-propionylamino)-N-hydroxy-benzamide], the IC50 in experiment [1] stood at 12 nM; in experiment [2] it was 3110 nM; in experiment [3] it was 246 nM; in experiment [4] it was 4150 nM; in experiment [6], 132 nM. Also, the “increase of the number of times in the level of p24 with respect to control” value in experiment [5] (31 nM) stood at 2 times; in experiment [5] (63 nM), 3 times; in experiment [5] (125 nM), 10 times; in experiment [5] (250 nM), 27 times; in experiment [5] (250 nM, listed as compound g) it was 30 times.
Turning to `O=C(NO)c1ccc(NC(=O)[C@H](Cc2ccc3ccccc3c2)NC(=O)c2ccc3c(c2)OCO3)cc1` [Compound t, benzo[1,3]dioxole-5-carboxylic acid [1(S)-(4-hydroxycarbamoyl-phenylcarbamoyl)-2-naphtalen-2-yl-ethy]-amide], the IC50 is 29.5 nM in experiment [1]; > 10000 nM in experiment [2]; 107 nM in experiment [3]; > 10000 nM in experiment [4]; 276 nM in experiment [6]. Besides, the “increase of the number of times in the level of p24 with respect to control” value stood at 1 times in experiment [5] (31 nM); 2 times in experiment [5] (63 nM); 10 times in experiment [5] (125 nM); 33 times in experiment [5] (250 nM); 30 times in experiment [5] (250 nM, listed as compound t).
